According to US12116636B2, “Methods for evaluating tumor cell spheroids using 3D microfluidic cell culture device” (Dana-Farber Cancer Institute, Inc., priority 2017, dated 2024):

Key:
[1] = system: human CD4+ and CD8+ T cells; test: IFNγ in supernatant of anti-CD3/anti-CD28 stimulated T cells; format: cell-based; conditions: dose-titration, 96 hours
Experimental: Freshly isolated human CD4+ and CD8+ T cells were obtained from AllCells (Alameda, CA, USA). Cells were spun down and resuspended in serum free Xvivol5 media (Lonza Walkersville, Inc., Chicago, IL, USA) supplemented with 5 ng/mL […] and incubated overnight at 37° C. Cells were plated on anti-CD3 coated plates (5 μg/mL OKT3, eBioscience™, Dallas, TX, USA, overnight) with 2 μg/mL anti-CD28 (eBioscience™, Dallas, TX, USA). Cells are treated in replicate plates with a dose-titration of Compound 1 for 24 hours for IL-2 and 96 hours for IFNT. IL-2 and IFNγ in the supernatant were measured using single- or multi-plex immunoassay (Mesoscale Discovery, Rockville, MD, USA). Jurkat T cell leukemia cells (clone E61 obtained from ATCC) plated on anti-CD3 coated plates were treated with a dose titration of Compound 1 for 24 hours. IL-2 in the supernatant was measured as described above.

CT26 MDOTS = test: Bead-based cytokine profiling of MDOTS conditioned media; format: cell-based, murine; conditions: Cmpd1 1 μM ± anti-PD-1 10 μg/mL
Experimental: (§1) Fresh tumor specimens (murine and human patients) were received in media (DMEM) on ice and minced in a 10 cm dish (on ice) using sterile forceps and scalpel. Minced tumor was resuspended in DMEM (4.5 mM glucose, […] sodium pyruvate, 1:100 penicillin-streptomycin) (Coming CellGro, Manassas, VA)+10% FBS (Gemini Bio-Products, West Sacramento, CA), 100 U/mL collagenase type IV (Life Technologies, Carlsbad, CA), and 15 mM HEPES (Life Technologies, Carlsbad, CA), except for CT26 tumors that were prepared in RPMI. Samples were pelleted and resuspended in 10-20 mL media. Red blood cells were removed from visibly bloody samples using RBC Lysis Buffer (Boston Bio-Products, Ashland, MA). […]
(§2) Two multiplex assays were performed utilizing a bead-based immunoassay approach, the Bio-Plex Pro™ Human Cytokine 40-plex Assay (Cat #171AK99MR2) and Bio-Plex Pro™ Mouse Cytokine Panel 1, 23-plex (Cat #M60009RDPD) on a Bio-plex 200 system (Cat #171000201). […] Fold changes relative to the MDOT/PDOT control were calculated and plotted as log 2FC. Lower and upper limits of quantitation (LLOQ/ULOQ) were imputed from standard curves for cytokines above or below detection. […]

B16F10 MDOTS = test: as above; format: cell-based, murine; conditions: Cmpd1 1 μM ± αPD-1
Experimental: as §1, §2

B16F10 lung metastases = test: B16F10 tail vein injection model, lung metastases; format: in vivo, mice; conditions: Compound 1 40 mg/kg daily 13 days ± anti-PD-L1 10 mg/kg
Experimental: Combination studies were performed by vivoPharm (Hummelstown, PA, USA). All procedures used in the performance of these studies were carried out in accordance with vivoPharm's Standard Operating Procedures, with particular reference to US_SOPvP_EF0314 “General Procedures for Efficacy Studies.” CT26 colon carcinoma cells (1×10^6 cells/mouse in 100 μL, passage 2-3) were re-suspended in serum-free DMEM and implanted in the upper right flank of 11-12 week old female Balb/c mice (Charles River Laboratories). Mice were randomized into four groups of 10 using a matched pair distribution method based on tumor size for CT26. Treatment was initiated 12 days post-inoculation with mean tumor volume at start of dosing of 125.85 mm^3. Vehicle or Compound 1 (40 mg/kg) was administered by oral gavage daily for 26 days and isotype control or a reverse chimera anti-PD-L1 cloned from literature reports (e.g., Deng, R. et al. MAbs (2016), the content of which is incorporated herein by reference in entirety) and placed into a mouse IgG1 framework (10 mg/kg) was administered every 5 days for a total of six doses. Investigators were not blinded to treatment groups. […] Mice were scarified on Day 13 and lung metastases were quantified (small≤1 mm, medium>1 mm and ≤3 mm, large>3 mm). No large lung metastases were detected.

[2] = system: CT26 spheroids (lacking immune cells); test: Cytokine profiling of cell line spheroids lacking immune cells; format: cell-based, murine; conditions: Day 1, 3, 6 vs vehicle
Experimental: as §1, §2

**Q.** What does the source list for `N#Cc1cc(-c2ncnc(Nc3ccc(N4CCN(C5COC5)CC4)cc3)n2)ccc1OC1CCOCC1` [Compound 1, 5-(4-((4-(4-(oxetan-3-yl)piperazin-1-yl)phenyl)amino)-1,3,5-triazin-2-yl)-2-((tetrahydro-2H-pyran-4-yl)oxy)benzonitrile]?
**A.** secretion of IFN-7 from purified CD4+ and CD8+ T cells [1]: enhanced secretion; levels of CCL4, CCL3, and IL-10 in CT26 MDOTS (CT26 MDOTS): Decreased levels; G-CSF and related innate immune response cytokines in B16F10 MDOTS (B16F10 MDOTS): without concomitant induction; sensitization of B16F10 tail vein injection model (lung metastases) (B16F10 lung metastases): could not be sensitized; immune suppressive cytokine elaboration by CT26 cell line spheroids [2]: effectively blocked
